Experimental data: patent publication US8598132B2, “Glycosylated indolocarbazoles, method for obtaining same and uses thereof” (Universidad de Oviedo, priority 2008, dated 2013)

Tests used:
Format in all cases: cell-based
HT29 (colon) = test: SRB anti-tumour (growth inhibition) assay, HT29; conditions: Homo sapiens, HT-29, 48 h exposure, read-out: GI50 (concentration inhibiting 50% of cell growth)
Experimental: (§1) The compounds generated were tested against a series of cell lines from tumours. It quantitatively determined the cell growth and the viability, using a colorimetric assay type, using the reaction with sulforhodamine B (SRB), according to the technique described by Faircloth et al. (Journal of Tissue and Culture Methods 1988, 11, 201-205).
(§2) 96-well microtitre plates are inoculated with cells (5×10^3 cells per well) in aliquots of 195 μl of medium, incubating them during 18 h, in a medium without added compound, to allow the cells to adhere to the surface. Next, the compounds to be tested are added, in samples of 5 μl, at a range of concentrations of 10 to 10^−8 μg/ml, dissolved in DMSO/EtOH (0.2% in PS buffer). After 48 h exposure, the anti-tumour effect is measured using the Sulforhodamine B (SRB) technique: the cells are fixed adding 50 μl of cold […] (50%) (w/v) and it is incubated for 60 min. at 4° C. The plates are washed with deionized water and dried. 100 μl of SRB solution (0.4% w/v in 1% acetic acid) to each well and it is incubated during 10 min. at ambient temperature. The non-bound SRB is eliminated, washing with 1% acetic acid. The plates are air dried and the bound colorant is dissolved with Tris buffer. The optical densities are read in an automatic plate spectrophotometer reader at a wavelength of 490 nm.
(§3) For the compounds of formula (III), (IV), (V), (VI), (VII), (VIII), (IX) and the compounds of formula (XII), (XIII), (XIV), (XV), (XVI) and (XVIII).

A549 (lung) = test: SRB anti-tumour (growth inhibition) assay, A549; conditions: Homo sapiens, 48 h exposure, read-out: GI50 (concentration inhibiting 50% of cell growth)
Experimental: as §1, §2, §3

MDA-MB-231 (breast) = test: SRB anti-tumour (growth inhibition) assay, MDA-MB-231; conditions: Homo sapiens, 48 h exposure, read-out: GI50 (concentration inhibiting 50% of cell growth)
Experimental: as §1, §2, §3

SMILES | GI50 (HT29 (colon)) [nM] | GI50 (A549 (lung)) [nM] | GI50 (MDA-MB-231 (breast)) [nM]
CO[C@H]1[C@H](O)[C@@H](O)[C@H](n2c3c(Cl)cccc3c3c4c(c5c6cccc(Cl)c6[nH]c5c32)C(=O)NC4=O)O[C@@H]1CO [RBM, rebeccamycin, reference compound] | 1550 | 760 | 
CN[C@@H]1C[C@H]2O[C@@](C)([C@@H]1OC)n1c3ccccc3c3c4c(c5c6ccccc6n2c5c31)C(=O)NC4 [STP, staurosporine, reference compound] | 76 | 8 | 13
